Assays:
[1] = system: eggs of Thrips; experiment: Effect on hatching of eggs of Thrips, leaf disc method; type: in vivo; details: 100 ppm; for Hatching rate (%): 5 days after insecticide delivery
In short: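 Egg-bearing Vicia faba leaf discs (diameter 2.0 cm, wetted filter paper beneath) were counted microscopically for baseline eggs. They were then soaked for 10 seconds in water or in test agent at 100 ppm. After moist incubation in lidded dishes, with controlled temperature and humidity and adequate indirect light, hatched larvae were counted five days post-delivery to judge hatching inhibition.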

[2] = system: eggs of Tetranychus urticae; experiment: Effect on hatching of eggs of Tetranychus urticae, leaf disc method; type: in vivo; details: 5 ppm; for Hatching rate (%): 5 days after insecticide delivery
In short: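 This leaf disc test measured inhibition of Tetranychus urticae egg hatching. Eggs laid on Vicia faba discs were counted microscopically, and the discs were soaked for 10 seconds in compound at 5 ppm, with clear water as control. They were incubated under controlled temperature and humidity with strong indirect light, avoiding condensate. Hatched eggs, leaf damage and developmental abnormalities were recorded five days after delivery.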

[3] = system: eggs of Aleyrodidae; experiment: Effect on hatching of eggs of Aleyrodidae, leaf disc method; type: in vivo; details: 10 ppm; for Hatching rate (%), Replicate 1 / Hatching rate (%), Replicate 2 / Hatching rate (%), Replicate 3 / Number of hatched larvae 5 days after insecticide delivery, Replicate 1 / Number of hatched larvae 5 days after insecticide delivery, Replicate 2 / Number of hatched larvae 5 days after insecticide delivery, Replicate 3: Aleyrodidae eggs; for Hatching rate (%), Replicate 1 / Hatching rate (%), Replicate 2 / Hatching rate (%), Replicate 3: 5 days after delivery; for Number of hatched larvae 5 days after insecticide delivery, Replicate 1 / Number of hatched larvae 5 days after insecticide delivery, Replicate 2 / Number of hatched larvae 5 days after insecticide delivery, Replicate 3: leaf disc
In short: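 Leaf discs carrying Aleyrodidae eggs were first examined microscopically to record a baseline egg count. They were then dipped for 10 seconds in compound solution at 10 ppm or in clear water, taken out, and incubated with humidity maintained. Five days after delivery, the number of hatched larvae was recorded to assess hatching inhibition.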

[4] = system: eggs of Harmonia axyridis; experiment: Effect on hatching of eggs of Harmonia axyridis, egg card immersion; type: in vivo; details: 100 ppm; for Number of hatched larvae 4 days after insecticide delivery, Replicate 1 / Number of hatched larvae 4 days after insecticide delivery, Replicate 2 / Number of hatched larvae 4 days after insecticide delivery, Replicate 3: Harmonia axyridis egg cards, immersed 30 seconds; for Hatching rate (%), Replicate 1 / Hatching rate (%), Replicate 2 / Hatching rate (%), Replicate 3: Harmonia axyridis eggs, 4 days after delivery
In short: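 Egg cards (~20 eggs each) dipped 30 s in 100 ppm insecticide, air dried and kept moist at 27° C; 5 cards per treatment, 3 replicates. Hatching assessed 4 days after treatment against pre-treatment egg counts, and control effect calculated by formula.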

[5] = system: Magnaporthe grisea; type: cell-based; details: 100 ppm; for Average antifungal rate (%) / Antifungal rate of Magnaporthe grisea (%), Replicate 1 / Antifungal rate of Magnaporthe grisea (%), Replicate 2 / Antifungal rate of Magnaporthe grisea (%), Replicate 3: 96-well plate; for Average antifungal rate (%): average of 3 replicates
[6] = Replicate 1, listed as 1′-(R, S)
[7] = Replicate 2, listed as 1′-(R, S)
[8] = Replicate 3, listed as 1′-(R, S)
[9] = Replicate 1, listed as 19-(S, S)
[10] = Replicate 2, listed as 19-(S, S)
[11] = Replicate 3, listed as 19-(S, S)

`CC(COc1ccc(Cl)cc1Cl)OS(=O)OCCF` [1′-(R,S)] was tested, and the “inhibitory activity on the hatching of eggs of Thrips (in words)” value (“inhibitory activity … of Thrips (in words)” below) [1] was “strong inhibitory activities”, the “Hatching rate (%)” value [1, 6] was 0.00% and the “Hatching rate (%)” value [1, 7] was 0.00%. For the same compound, the “Hatching rate (%)” value [1, 8] was 0.00%, the “Number of hatched larvae 5 days after insecticide delivery” value [1, 6] was 0 and the “Number of hatched larvae 5 days after insecticide delivery” value [1, 7] was 0. For the same compound, the “Number of hatched larvae 5 days after insecticide delivery” value [1, 8] was 0, the “inhibitory activity on the hatching of eggs of Tetranychus urticae (in words)” value [2] was “strong inhibitory activities” and the “Hatching rate (%)” value [2, 6] was 0.00%. For the same compound, the “Hatching rate (%)” value [2, 7] was 0.00%, the “Number of hatched larvae 5 days after insecticide delivery” value [2, 6] was 0 and the “Number of hatched larvae 5 days after insecticide delivery” value [2, 7] was 0. For the same compound, the “inhibitory activity on the hatching of eggs of Aleyrodidae (in words)” value (from here on “inhibitory activity … of Aleyrodidae (in words)”) [3] was “strong inhibitory activities”, the “Hatching rate (%), Replicate 1” value ([3]; listed as 1′-(R, S)) was 0.00% and the “Hatching rate (%), Replicate 2” value ([3]; listed as 1′-(R, S)) was 0.00%. The “Hatching rate (%), Replicate 3” value ([3]; listed as 1′-(R, S)) was 0.00%, the “Number of hatched larvae 5 days after insecticide delivery, Replicate 1” value (“Number of hatched larvae 5 days … Replicate 1” below) ([3]; listed as 1′-(R, S)) was 0 and the “Number of hatched larvae 5 days after insecticide delivery, Replicate 2” value (from here on “Number of hatched larvae 5 days … Replicate 2”) ([3]; listed as 1′-(R, S)) was 0. For the same compound, the “Number of hatched larvae 5 days after insecticide delivery, Replicate 3” value (shortened to “Number of hatched larvae 5 days … Replicate 3”) ([3]; listed as 1′-(R, S)) was 0, the “inhibitory activity on the hatching of eggs of Harmonia axyridis (in words)” value [4] was “strong inhibitory activities” and the “Number of hatched larvae 4 days after insecticide delivery, Replicate 1” value (“Number of hatched larvae 4 days … Replicate 1” below) ([4]; listed as 1′-(R, S)) was 0. The “Number of hatched larvae 4 days after insecticide delivery, Replicate 2” value (from here on “Number of hatched larvae 4 days … Replicate 2”) ([4]; listed as 1′-(R, S)) was 0, the “Number of hatched larvae 4 days after insecticide delivery, Replicate 3” value (shortened to “Number of hatched larvae 4 days … Replicate 3”) ([4]; listed as 1′-(R, S)) was 0 and the “Hatching rate (%), Replicate 1” value ([4]; listed as 1′-(R, S)) was 0.00%. For the same compound, the “Hatching rate (%), Replicate 2” value ([4]; listed as 1′-(R, S)) was 0.00%, the “Hatching rate (%), Replicate 3” value ([4]; listed as 1′-(R, S)) was 0.00% and the “inhibitory rate against Magnaporthe grisea (in words)” value (“inhibitory rate” below) [5] was “strong inhibitory rate”. The “Average antifungal rate (%)” value [5] was 100.09%, the “Antifungal rate of Magnaporthe grisea (%), Replicate 1” value (“Antifungal rate … (%), Replicate 1” below) [5] was 100.26% and the “Antifungal rate of Magnaporthe grisea (%), Replicate 2” value (“Antifungal rate … (%), Replicate 2” for short) [5] was 99.74%. The “Antifungal rate of Magnaporthe grisea (%), Replicate 3” value (from here on “Antifungal rate … (%), Replicate 3”) [5] was 100.26%.

`CC(C)(COS(=O)OCCF)Oc1ccc(Cl)cc1Cl` (stereo not drawn) [S-10′] was tested, and the “inhibitory activity … of Thrips (in words)” value [1] was “strong inhibitory activities”, the “Hatching rate (%)” value ([1]; Replicate 1) was 0.00% and the “Hatching rate (%)” value ([1]; Replicate 2) was 0.00%. The “Hatching rate (%)” value ([1]; Replicate 3) was 0.00%, the “Number of hatched larvae 5 days after insecticide delivery” value ([1]; Replicate 1) was 0 and the “Number of hatched larvae 5 days after insecticide delivery” value ([1]; Replicate 2) was 0. For the same compound, the “Number of hatched larvae 5 days after insecticide delivery” value ([1]; Replicate 3) was 0, the “inhibitory activity on the hatching of eggs of Tetranychus urticae (in words)” value [2] was “strong inhibitory activities” and the “Hatching rate (%)” value ([2]; Replicate 1) was 0.00%. For the same compound, the “Hatching rate (%)” value ([2]; Replicate 2) was 0.00%, the “Number of hatched larvae 5 days after insecticide delivery” value ([2]; Replicate 1) was 0 and the “Number of hatched larvae 5 days after insecticide delivery” value ([2]; Replicate 2) was 0. For the same compound, the “inhibitory activity … of Aleyrodidae (in words)” value [3] was “strong inhibitory activities”, the “Hatching rate (%), Replicate 1” value [3] was 0.00% and the “Hatching rate (%), Replicate 2” value [3] was 0.00%. For the same compound, the “Hatching rate (%), Replicate 3” value [3] was 0.00%, the “Number of hatched larvae 5 days … Replicate 1” value [3] was 0 and the “Number of hatched larvae 5 days … Replicate 2” value [3] was 0. The “Number of hatched larvae 5 days … Replicate 3” value [3] was 0, the “inhibitory activity on the hatching of eggs of Harmonia axyridis (in words)” value [4] was “strong inhibitory activities” and the “Number of hatched larvae 4 days … Replicate 1” value [4] was 0. For the same compound, the “Number of hatched larvae 4 days … Replicate 2” value [4] was 0, the “Number of hatched larvae 4 days … Replicate 3” value [4] was 0 and the “Hatching rate (%), Replicate 1” value [4] was 0.00%. The “Hatching rate (%), Replicate 2” value [4] was 0.00%, the “Hatching rate (%), Replicate 3” value [4] was 0.00% and the “inhibitory rate” value [5] was “strong inhibitory rate”. The “Average antifungal rate (%)” value [5] was 99.31%, the “Antifungal rate … (%), Replicate 1” value [5] was 100.03% and the “Antifungal rate … (%), Replicate 2” value [5] was 99.64%. For the same compound, the “Antifungal rate … (%), Replicate 3” value [5] was 98.27%.

For `CCC(COc1ccc(Cl)cc1Cl)OS(=O)OCCF` [19-(S,S)], the “Hatching rate (%)” value [1, 9] was 14.4%, the “Hatching rate (%)” value [1, 10] was 13.89% and the “Hatching rate (%)” value [1, 11] was 11.46%. For the same compound, the “Number of hatched larvae 5 days after insecticide delivery” value [1, 9] was 18, the “Number of hatched larvae 5 days after insecticide delivery” value [1, 10] was 15 and the “Number of hatched larvae 5 days after insecticide delivery” value [1, 11] was 11. For the same compound, the “Hatching rate (%)” value [2, 9] was 17.48%, the “Hatching rate (%)” value [2, 10] was 14.74% and the “Number of hatched larvae 5 days after insecticide delivery” value [2, 9] was 18. The “Number of hatched larvae 5 days after insecticide delivery” value [2, 10] was 14, the “Hatching rate (%), Replicate 1” value ([3]; listed as 19-(S, S)) was 12.36% and the “Hatching rate (%), Replicate 2” value ([3]; listed as 19-(S, S)) was 12.03%. The “Hatching rate (%), Replicate 3” value ([3]; listed as 19-(S, S)) was 12.28%, the “Number of hatched larvae 5 days … Replicate 1” value ([3]; listed as 19-(S, S)) was 11 and the “Number of hatched larvae 5 days … Replicate 2” value ([3]; listed as 19-(S, S)) was 16. The “Number of hatched larvae 5 days … Replicate 3” value ([3]; listed as 19-(S, S)) was 14, the “Number of hatched larvae 4 days … Replicate 1” value ([4]; listed as 19-(S, S)) was 13 and the “Number of hatched larvae 4 days … Replicate 2” value ([4]; listed as 19-(S, S)) was 15. For the same compound, the “Number of hatched larvae 4 days … Replicate 3” value ([4]; listed as 19-(S, S)) was 16, the “Hatching rate (%), Replicate 1” value ([4]; listed as 19-(S, S)) was 13.68% and the “Hatching rate (%), Replicate 2” value ([4]; listed as 19-(S, S)) was 14.56%. The “Hatching rate (%), Replicate 3” value ([4]; listed as 19-(S, S)) was 15.38%, the “inhibitory rate” value [5] was “strong inhibitory rate” and the “Average antifungal rate (%)” value [5] was 84.69%. For the same compound, the “Antifungal rate … (%), Replicate 1” value [5] was 86.52%, the “Antifungal rate … (%), Replicate 2” value [5] was 83.17% and the “Antifungal rate … (%), Replicate 3” value [5] was 84.38%.

`CC(C)(COc1ccc(Cl)cc1Cl)OS(=O)OCCF` (stereo not drawn) [Compound S-10] was tested, and the “inhibitory activity … of Thrips (in words)” value [1] was “strong inhibitory activities”, the “Hatching rate (%)” value ([1]; Replicate 1) was 0.00% and the “Hatching rate (%)” value ([1]; Replicate 2) was 0.00%. The “Hatching rate (%)” value ([1]; Replicate 3) was 0.00%, the “Number of hatched larvae 5 days after insecticide delivery” value ([1]; Replicate 1) was 0 and the “Number of hatched larvae 5 days after insecticide delivery” value ([1]; Replicate 2) was 0. The “Number of hatched larvae 5 days after insecticide delivery” value ([1]; Replicate 3) was 0, the “inhibitory activity on the hatching of eggs of Tetranychus urticae (in words)” value [2] was “strong inhibitory activities” and the “Hatching rate (%)” value ([2]; Replicate 1) was 0.00%. The “Hatching rate (%)” value ([2]; Replicate 2) was 0.00%, the “Number of hatched larvae 5 days after insecticide delivery” value ([2]; Replicate 1) was 0 and the “Number of hatched larvae 5 days after insecticide delivery” value ([2]; Replicate 2) was 0. The “inhibitory activity … of Aleyrodidae (in words)” value [3] was “strong inhibitory activities”, the “Hatching rate (%), Replicate 1” value [3] was 0.00% and the “Hatching rate (%), Replicate 2” value [3] was 0.00%. For the same compound, the “Hatching rate (%), Replicate 3” value [3] was 0.00%, the “Number of hatched larvae 5 days … Replicate 1” value [3] was 0 and the “Number of hatched larvae 5 days … Replicate 2” value [3] was 0. For the same compound, the “Number of hatched larvae 5 days … Replicate 3” value [3] was 0, the “inhibitory activity on the hatching of eggs of Harmonia axyridis (in words)” value [4] was “strong inhibitory activities” and the “Number of hatched larvae 4 days … Replicate 1” value [4] was 0. For the same compound, the “Number of hatched larvae 4 days … Replicate 2” value [4] was 0, the “Number of hatched larvae 4 days … Replicate 3” value [4] was 0 and the “Hatching rate (%), Replicate 1” value [4] was 0.00%. For the same compound, the “Hatching rate (%), Replicate 2” value [4] was 0.00%, the “Hatching rate (%), Replicate 3” value [4] was 0.00% and the “inhibitory rate” value [5] was “strong inhibitory rate”. The “Average antifungal rate (%)” value [5] was 98.62%, the “Antifungal rate … (%), Replicate 1” value [5] was 98.63% and the “Antifungal rate … (%), Replicate 2” value [5] was 99.72%. For the same compound, the “Antifungal rate … (%), Replicate 3” value [5] was 97.51%.
